{"source": "patent US8758740B2", "about": "“Composition for promoting ketone body production” (Earthus, Inc, priority 2007, dated 2014)", "origin": "cited, not measured here", "key": {"[1]": {"conditions": "dog"}, "[2]": {"conditions": "single oral bolus, 10 g of the cyclic trimer"}}, "note": "Like-named read-outs stand apart in the source and are kept apart here.", "data": [{"smiles": "C[C@@H]1CC(=O)O[C@H](C)CC(=O)O[C@H](C)CC(=O)O1", "note": "[cyclic trimer]", "values": [{"measurement": "blood level of ketone bodies", "setting": "80 minutes after oral administration of diet containing 11 wt % of the trimer", "result": "1.8 times of the normal level"}, {"measurement": "blood level of ketone bodies", "setting": "150 minutes after oral administration of diet containing 11 wt % of the trimer", "result": "2.4 times of the normal level"}, {"measurement": "blood ketone body level", "setting": "[1]; meat with 23.5 g cyclic trimer four times over 9 hours, after the third administration (at 6 hours)", "result": "30 times of the normal level"}, {"measurement": "blood hydroxybutyric acid level", "setting": "[1]; meat with 23.5 g cyclic trimer four times over 9 hours, within 30 minutes from the first administration", "result": "about 50 times of the normal level"}, {"measurement": "highest blood hydroxybutyric acid level", "setting": "[1]; [2]", "result": "more than 5 times of the normal level"}, {"measurement": "time of the highest blood hydroxybutyric acid level from the administration", "setting": "[1]; [2]", "result": 90, "unit": "min"}]}]}
